Earlier results as cited in patent US20240384284A1, “FEED CROPS FOR REDUCED METHANOGENESIS IN LIVESTOCK” (Elysia Creative Biology, LLC, priority 2023, published 2024).

System: methanogenesis

Compound: BrC(Br)Br [Bromoform]
- in vivo methane reduction: up to 98%
